Results published in patent publication US10981894B2, “Melanocortin subtype-2 receptor (MC2R) antagonists and uses thereof” (Crinetics Pharmaceuticals, Inc., priority 2018, dated 2021).

Biological target: hMC2 receptor (Homo sapiens, UniProt Q01718)
Assay: hMC2 membrane binding assay ([125I]ACTH (1-39) Tyr23, SPA)
Set-up: scale not given here
Conditions: crude hMC2R membranes from CRE-bla-CHO-K1 cells expressing hMC2 receptor and hMRAP; [125I]ACTH (1-39) Tyr23 0.2 nM; 1.5 hours at room temperature; read-out: MC2R binding potency
Method in brief: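 Ki comes from non-linear regression of SPA scintillation counts. Displacement of 0.2 nM [125I]ACTH(1-39) Tyr23 by compound dose series (usually 0–10,000 nM final) ran 1.5 h at room temperature. Membranes came from CHO-K1 CRE-bla cells stably expressing hMC2R plus hMRAP, bead-coupled in pH 7.4 buffer with 0.2% BSA.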

hMC2 receptor, sequence (Q01718 whole entry): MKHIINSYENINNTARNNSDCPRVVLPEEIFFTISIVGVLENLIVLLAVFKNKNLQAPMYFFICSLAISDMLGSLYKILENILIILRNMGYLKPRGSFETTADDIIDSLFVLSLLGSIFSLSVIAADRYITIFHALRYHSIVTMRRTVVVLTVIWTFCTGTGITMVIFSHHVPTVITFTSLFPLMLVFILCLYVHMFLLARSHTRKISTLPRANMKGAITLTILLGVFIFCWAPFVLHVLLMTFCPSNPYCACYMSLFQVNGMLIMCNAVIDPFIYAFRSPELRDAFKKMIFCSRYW
hMC2 receptor, sequence (Q8TCY5 whole entry partner): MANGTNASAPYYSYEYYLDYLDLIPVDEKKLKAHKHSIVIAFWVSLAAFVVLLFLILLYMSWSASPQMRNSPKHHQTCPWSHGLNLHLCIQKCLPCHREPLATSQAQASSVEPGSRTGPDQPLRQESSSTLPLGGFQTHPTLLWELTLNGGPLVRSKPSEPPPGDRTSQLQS

## CCOc1ncccc1-c1ccc(N2CCN(C(=O)c3ccc(OC)nc3C(F)(F)F)C[C@H]2CC)c(C(=O)N[C@@H]2CCNC2)n1 [Compound 1-240, 2′-ethoxy-5-[(2R)-2-ethyl-4-[6-methoxy-2-(trifluoromethyl)pyridine-3-carbonyl]piperazin-1-yl]-N-[(3R)-pyrrolidin-3-yl]-[2,3′-bipyridine]-6-carboxamide]
  Ki: < 10 nM

## CCOc1ncccc1-c1ccc(N2CCN(C(=O)C3(C(F)(F)F)CCCC3)C[C@H]2CC)c(C(=O)NC2CN(C)C2)n1 [Compound 1-241, 2′-ethoxy-5-[(2R)-2-ethyl-4-[1-(trifluoromethyl)cyclopentanecarbonyl]piperazin-1-yl]-N-(1-methylazetidin-3-yl)-[2,3′-bipyridine]-6-carboxamide]
  Ki: < 10 nM

## CCOc1ncccc1-c1ccc(N2CCN(C(=O)c3ccc(OC)nc3C(F)(F)F)C[C@H]2CC)c(C(=O)NCC2CN(C)C2)n1 [Compound 1-242, 2′-ethoxy-5-[(2R)-2-ethyl-4-[6-methoxy-2-(trifluoromethyl)pyridine-3-carbonyl]piperazin-1-yl]-N-[(1-methylazetidin-3-yl)methyl]-[2,3′-bipyridine]-6-carboxamide]
  Ki: < 10 nM

## CCOc1ccc(C(=O)N2CCN(c3ccc(-c4cccnc4OCC)nc3C(=O)N[C@@H]3CCN(C)C3)[C@H](CC)C2)c(C(F)(F)F)n1 [Compound 1-243, 2′-ethoxy-5-[(2R)-4-[6-ethoxy-2-(trifluoromethyl)pyridine-3-carbonyl]-2-ethylpiperazin-1-yl]-N-[(3R)-1-methylpyrrolidin-3-yl]-[2,3′-bipyridine]-6-carboxamide]
  Ki: < 10 nM

## CCOc1ncccc1-c1ccc(N2CCN(C(=O)c3ccc(OC)nc3C(F)(F)F)C[C@H]2CC)c(C(=O)NC[C@@H]2CCN2)n1 [Compound 1-244, N-{[(2S)-azetidin-2-yl]methyl}-2′-ethoxy-5-[(2R)-2-ethyl-4-[6-methoxy-2-(trifluoromethyl)pyridine-3-carbonyl]piperazin-1-yl]-[2,3′-bipyridine]-6-carboxamide]
  Ki: < 10 nM

## CCOc1ncccc1-c1ccc(N2CCN(C(=O)c3ccc(OC)nc3C(F)(F)F)C[C@H]2CC)c(C(=O)NC[C@@H]2CCN2C)n1 [Compound 1-245, 2′-ethoxy-5-[(2R)-2-ethyl-4-[6-methoxy-2-(trifluoromethyl)pyridine-3-carbonyl]piperazin-1-yl]-N-{[(2S)-1-methylazetidin-2-yl]methyl}-[2,3′-bipyridine]-6-carboxamide]
  Ki: < 10 nM

## CC[C@@H]1CN(C(=O)c2ccc(OC)nc2C(F)(F)F)CCN1c1ccc(-c2cccnc2OC)nc1C(=O)NC1CN(C)C1 [Compound 1-246, 5-[(2R)-2-ethyl-4-[6-methoxy-2-(trifluoromethyl)pyridine-3-carbonyl]piperazin-1-yl]-2′-methoxy-N-(1-methylazetidin-3-yl)-[2,3′-bipyridine]-6-carboxamide]
  Ki: < 10 nM

## CCOc1ccc(C(=O)N2CCN(c3ccc(-c4cccnc4OC)nc3C(=O)NC3CN(C)C3)[C@H](CC)C2)c(C(F)(F)F)n1 [Compound 1-247, 5-[(2R)-4-[6-ethoxy-2-(trifluoromethyl)pyridine-3-carbonyl]-2-ethylpiperazin-1-yl]-2′-methoxy-N-(1-methylazetidin-3-yl)-[2,3′-bipyridine]-6-carboxamide]
  Ki: < 10 nM

## CCOc1ccc(C(=O)N2CCN(c3ccc(-c4cccnc4OCC)nc3C(=O)NCC3CN(C)C3)[C@H](CC)C2)c(C(F)(F)F)n1 [Compound 1-249, 2′-ethoxy-5-[(2R)-4-[6-ethoxy-2-(trifluoromethyl)pyridine-3-carbonyl]-2-ethylpiperazin-1-yl]-N-[(1-methylazetidin-3-yl)methyl]-[2,3′-bipyridine]-6-carboxamide]
  Ki: < 10 nM

## CCOc1ccccc1-c1ccc(N2CCN(C(=O)c3ccc(OC)nc3C(F)(F)F)C[C@H]2CC)c(C(=O)N[C@@H]2CCN(C)C2)n1 [Compound 1-253, 6-(2-ethoxyphenyl)-3-[(2R)-2-ethyl-4-[6-methoxy-2-(trifluoromethyl)pyridine-3-carbonyl]piperazin-1-yl]-N-[(3R)-1-methylpyrrolidin-3-yl]pyridine-2-carboxamide]
  Ki: < 10 nM

## CCOc1ccccc1-c1ccc(N2CCN(C(=O)c3ccc(OC)nc3C(F)(F)F)C[C@H]2CC)c(C(=O)N[C@@H]2CCNC2)n1 [Compound 1-254, 6-(2-ethoxyphenyl)-3-[(2R)-2-ethyl-4-[6-methoxy-2-(trifluoromethyl)pyridine-3-carbonyl]piperazin-1-yl]-N-[(3R)-pyrrolidin-3-yl]pyridine-2-carboxamide]
  Ki: < 10 nM

## CCOc1ncccc1-c1ccc(N2CCN(C(=O)C3(C(F)(F)F)CCCC3)C[C@H]2CC)c(C(=O)N[C@@H]2CCN(C)C2)n1 [Compound 1-255, 2′-ethoxy-5-[(2R)-2-ethyl-4-[1-(trifluoromethyl)cyclopentanecarbonyl]piperazin-1-yl]-N-[(3R)-1-methylpyrrolidin-3-yl]-[2,3′-bipyridine]-6-carboxamide]
  Ki: < 10 nM

## CCOc1ccc(C(=O)N2CCN(c3ccc(-c4cccnc4OCC)nc3C(=O)NC[C@@H]3CCN3)[C@H](CC)C2)c(C(F)(F)F)n1 [Compound 1-256, N-{[(2S)-azetidin-2-yl]methyl}-2′-ethoxy-5-[(2R)-4-[6-ethoxy-2-(trifluoromethyl)pyridine-3-carbonyl]-2-ethylpiperazin-1-yl]-[2,3′-bipyridine]-6-carboxamide]
  Ki: < 10 nM

## CCOc1ccc(C(=O)N2CCN(c3ccc(-c4cccnc4OCC)nc3C(=O)NC[C@@H]3CCN3C)[C@H](CC)C2)c(C(F)(F)F)n1 [Compound 1-257, 2′-ethoxy-5-[(2R)-4-[6-ethoxy-2-(trifluoromethyl)pyridine-3-carbonyl]-2-ethylpiperazin-1-yl]-N-{[(2S)-1-methylazetidin-2-yl]methyl}-[2,3′-bipyridine]-6-carboxamide]
  Ki: < 10 nM

## CCOc1ncccc1-c1ccc(N2CCN(C(=O)c3ccc(F)cc3C(F)(F)F)C[C@H]2CC)c(C(=O)N[C@@H]2CCN(C)C2)n1 [Compound 1-258, 2′-ethoxy-5-[(2R)-2-ethyl-4-[4-fluoro-2-(trifluoromethyl)benzoyl]piperazin-1-yl]-N-[(3R)-1-methylpyrrolidin-3-yl]-[2,3′-bipyridine]-6-carboxamide]
  Ki: < 10 nM

## CCOc1ncccc1-c1ccc(N2CCN(C(=O)c3ccc(Cl)cc3Cl)C[C@H]2CC)c(C(=O)N[C@@H]2CCN(C)C2)n1 [Compound 1-259, 5-[(2R)-4-(2,4-dichlorobenzoyl)-2-ethylpiperazin-1-yl]-2′-ethoxy-N-[(3R)-1-methylpyrrolidin-3-yl]-[2,3′-bipyridine]-6-carboxamide]
  Ki: < 10 nM

## CCOc1ncccc1-c1ccc(N2CCN(C(=O)c3ccc(Cl)cc3C#N)C[C@H]2CC)c(C(=O)N[C@@H]2CCN(C)C2)n1 [Compound 1-260, 5-[(2R)-4-(4-chloro-2-cyanobenzoyl)-2-ethylpiperazin-1-yl]-2′-ethoxy-N-[(3R)-1-methylpyrrolidin-3-yl]-[2,3′-bipyridine]-6-carboxamide]
  Ki: < 10 nM

## CCOc1ncccc1-c1ccc(N2CCN(C(=O)c3ccc(F)cc3Cl)C[C@H]2CC)c(C(=O)N[C@@H]2CCN(C)C2)n1 [Compound 1-261, 5-[(2R)-4-[2-chloro-4-fluorobenzoyl]-2-ethylpiperazin-1-yl]-2′-ethoxy-N-[(3R)-1-methylpyrrolidin-3-yl]-[2,3′-bipyridine]-6-carboxamide]
  Ki: < 10 nM

## CCOc1ncccc1-c1ccc(N2CCN(C(=O)c3ccc(Cl)cc3C(F)F)C[C@H]2CC)c(C(=O)N[C@@H]2CCN(C)C2)n1 [Compound 1-262, 5-[(2R)-4-[4-chloro-2-(difluoromethyl)benzoyl]-2-ethylpiperazin-1-yl]-2′-ethoxy-N-[(3R)-1-methylpyrrolidin-3-yl]-[2,3′-bipyridine]-6-carboxamide]
  Ki: < 10 nM

## CCOc1ncccc1-c1ccc(N2CCN(C(=O)C3(C(F)(F)F)CCCC3)C[C@H]2CC)c(C(=O)N[C@@H]2CCNC2)n1 [Compound 1-263, 2′-ethoxy-5-[(2R)-2-ethyl-4-[1-(trifluoromethyl)cyclopentanecarbonyl]piperazin-1-yl]-N-[(3R)-pyrrolidin-3-yl]-[2,3′-bipyridine]-6-carboxamide]
  Ki: < 10 nM

## CCOc1ncccc1-c1ccc(N2CCN(C(=O)C3(CC)CCCC3)C[C@H]2CC)c(C(=O)NCCNC)n1 [Compound 1-264, 2′-ethoxy-5-[(2R)-2-ethyl-4-(1-ethylcyclopentanecarbonyl)piperazin-1-yl]-N-[2-(methylamino)ethyl]-[2,3′-bipyridine]-6-carboxamide]
  Ki: < 10 nM

## CCOc1ncccc1-c1ccc(N2CCN(C(=O)c3ccc(Cl)cc3C(F)F)C[C@H]2CC)c(C(=O)N[C@@H]2CCNC2)n1 [Compound 1-265, 5-[(2R)-4-[4-chloro-2-(difluoromethyl)benzoyl]-2-ethylpiperazin-1-yl]-2′-ethoxy-N-[(3R)-pyrrolidin-3-yl]-[2,3′-bipyridine]-6-carboxamide]
  Ki: < 10 nM

## CCOc1ncccc1-c1ccc(N2CCN(C(=O)c3ccc(F)cc3C(F)(F)F)C[C@H]2CC)c(C(=O)N[C@@H]2CCNC2)n1 [Compound 1-266, 2′-ethoxy-5-[(2R)-2-ethyl-4-[4-fluoro-2-(trifluoromethyl)benzoyl]piperazin-1-yl]-N-[(3R)-pyrrolidin-3-yl]-[2,3′-bipyridine]-6-carboxamide]
  Ki: < 10 nM

## CCOc1ncccc1-c1ccc(N2CCN(C(=O)c3ccc(Cl)cc3Cl)C[C@H]2CC)c(C(=O)N[C@@H]2CCNC2)n1 [Compound 1-267, 5-[(2R)-4-(2,4-dichlorobenzoyl)-2-ethylpiperazin-1-yl]-2′-ethoxy-N-[(3R)-pyrrolidin-3-yl]-[2,3′-bipyridine]-6-carboxamide]
  Ki: < 10 nM
